From patent publication US11905230B2, “Phenoxyacetic acid derivatives, preparation method thereof and use thereof as medicament” (CHINA PHARMACEUTICAL UNIVERSITY, priority 2017, dated 2024)

Legend:
hGPR40 receptor = hGPR40 receptor (Homo sapiens (Human), UniProt O14842); assay: agonistic activity on hGPR40-CHO stably transfected cells (Fluo-4 / FLIPR); assay type: cell-based; settings: for activation at 0.1 µM: 100 nM, relative to linoleic acid well; for EC50: mean ± SD of three determinations
Description: Experimental example 1 The agonistic activity of the compounds of the present invention on hGPR40-CHO stably transfected cells
The present invention used the following method to determine the GPR40 agonistic activity of the compounds of the invention:
hGPR40-CHO stably transfected cells were seeded into a 96-well plate at a density of 3×10^4/well, and incubated overnight in a 37° C., 5% CO2 cell incubator; the medium was discarded, 100 μl of HBSS was added to each well, and 100 μl of Fluo-4 dye solution containing Probenecid was added and incubated at 37° C. for 90 min. After the incubation, the Fluo-4 dye solution was sucked out, 100 μl of HBSS buffer was added, and the dye was washed away; 100 μl of HBSS containing Probenecid was added to each well, and incubated at 37° C. for 10 min; different concentrations of drugs were added to each well of the 96-well plate and FLIPR (Molecular Devices) was used for readings according to the parameter setting table. The experimental results were analyzed.

normal mice = assay: Oral glucose tolerance test (OGTT) in normal mice; assay type: in vivo, Kunming mice; settings: for effect on oral glucose tolerance in mice (in words): OGTT in normal mice, 20 mg/kg; for blood glucose level at 15 min / blood glucose level at 0 min / blood glucose level at 30 min / blood glucose level at 60 min / blood glucose level at 120 min: OGTT, 20 mg/kg by gavage, n = 8, in mmol/L (unit assumed); for blood glucose level at 15 min: 15 min after glucose load; for blood glucose level at 0 min: 30 min after dosing, before glucose load; for blood glucose level at 30 min: 30 min after glucose load; for blood glucose level at 60 min: 60 min after glucose load; for blood glucose level at 120 min: 120 min after glucose load
Description: Experimental example 2 In vivo hypoglycemic activity of the compounds of the present invention can be determined by using an assay system as described below:
The mice were fasted for 12 hours before experiment and water was taken freely, each group was administrated by gavage, blood was taken from the tail, and the blood glucose level was measured (recorded as −30 min).

[1] = Evaluation of hepatotoxicity: serum ALT, AST and TBIL after 4 weeks of dosing; assay type: in vivo; settings: for AST, ALT and TBIL compared with STZ (blank) group (in words): 4 weeks of dosing; for ALT (IU/L) / AST (IU/L) / TBIL (IU/L): serum, once a day for consecutive 4 weeks, x ± SD, n = 6
Description: Experimental example 3 Evaluation of hepatotoxicity of the compounds of the present invention:
The test compounds were administered once a day for consecutive 4 weeks, blood was taken, and the contents of alanine aminotransferase (ALT), aspartate aminotransferase (AST), and total bilirubin (TBIL) were measured.

Sequence of hGPR40 receptor (O14842 whole entry): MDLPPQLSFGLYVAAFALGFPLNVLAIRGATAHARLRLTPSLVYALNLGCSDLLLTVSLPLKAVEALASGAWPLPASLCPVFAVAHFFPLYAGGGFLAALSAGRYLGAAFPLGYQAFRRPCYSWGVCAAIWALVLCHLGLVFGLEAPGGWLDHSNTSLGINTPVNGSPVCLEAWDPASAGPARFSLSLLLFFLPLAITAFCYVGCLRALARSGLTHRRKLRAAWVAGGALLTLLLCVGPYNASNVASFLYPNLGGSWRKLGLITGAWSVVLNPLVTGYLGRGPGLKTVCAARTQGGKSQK

CCOc1cc(C)c(-c2cccc(CNc3ccc(OCC(=O)O)c(F)c3)c2)c(C)c1 [Compound I-1, 2-(4-((4′-ethoxy-2′,6′-dimethyl-[1,1′-biphenyl]-3-methylene)amino)-2-fluorophenoxy) acetic acid]
activation at 0.1 µM (hGPR40 receptor): 79%

O=C(O)COc1ccc(NCc2cccc(-c3ccccc3Cl)c2)cc1F [Compound I-2, 2-(4-((2′-chloro-[1,1′-biphenyl]-3-methylene)amino)-2-fluorophenoxy)acetic acid]
effect on oral glucose tolerance in mice (in words) (normal mice): significantly improve oral glucose tolerance | blood glucose level at 15 min (normal mice): 6.24 ± 0.39 | blood glucose level at 0 min (normal mice): 4.25 ± 0.38 | blood glucose level at 30 min (normal mice): 6.73 ± 0.29 | blood glucose level at 60 min (normal mice): 4.28 ± 0.37 | blood glucose level at 120 min (normal mice): 4.17 ± 0.52 | AST, ALT and TBIL compared with STZ (blank) group (in words) [1]: equivalent to the blank group | ALT (IU/L) [1]: 47 ± 5.3 IU/L | AST (IU/L) [1]: 118.43 ± 11.5 IU/L | TBIL (IU/L) [1]: 2.61 ± 0.5 IU/L | activation at 0.1 µM (hGPR40 receptor): 84% | EC50 (hGPR40 receptor): 16.3 ± 4.6 nM

O=C(O)COc1ccc(NCc2cccc(-c3ccccc3F)c2)cc1F [Compound I-4, 2-(4-((2′-fluoro-[1,1′-biphenyl]-3-methylene)amino)-2-fluorophenoxy)acetic acid]
activation at 0.1 µM (hGPR40 receptor): 65%

Cc1ccc(-c2cccc(CNc3ccc(OCC(=O)O)c(F)c3)c2)c(Cl)c1 [Compound I-5, 2-(4-((2′-chloro-4′-methyl-[1,1′-biphenyl]-3-methylene)amino)-2-fluorophenoxy)acetic acid]
activation at 0.1 µM (hGPR40 receptor): 73%

COc1ccccc1-c1cccc(CNc2ccc(OCC(=O)O)c(F)c2)c1 [Compound I-6, 2-(4-((2′-methoxy-[1,1′-biphenyl]-3-methylene)amino)-2-fluorophenoxy)acetic acid]
melting point: 95 to 96 °C | activation at 0.1 µM (hGPR40 receptor): 53%

O=C(O)COc1ccc(NCc2cccc(-c3ccccc3C(F)(F)F)c2)cc1F [Compound I-8, 2-(4-((2′-trifluoromethyl-[1,1′-biphenyl]-3-methylene)amino)-2-fluorophenoxy)acetic acid]
effect on oral glucose tolerance in mice (in words) (normal mice): significantly improve oral glucose tolerance | blood glucose level at 15 min (normal mice): 6.73 ± 0.65 | blood glucose level at 0 min (normal mice): 4.46 ± 0.47 | blood glucose level at 30 min (normal mice): 6.82 ± 0.58 | blood glucose level at 60 min (normal mice): 5.17 ± 0.39 | blood glucose level at 120 min (normal mice): 4.26 ± 0.25 | AST, ALT and TBIL compared with STZ (blank) group (in words) [1]: equivalent to the blank group | ALT (IU/L) [1]: 46.63 ± 6.2 IU/L | AST (IU/L) [1]: 112.85 ± 17.76 IU/L | TBIL (IU/L) [1]: 2.52 ± 0.3 IU/L | activation at 0.1 µM (hGPR40 receptor): 86% | EC50 (hGPR40 receptor): 11.7 ± 4.8 nM

CCCOc1cc(C)c(-c2cccc(CNc3ccc(OCC(=O)O)c(F)c3)c2)c(C)c1 [Compound I-9, 2-(4-((4′-propoxy-2′,6′-dimethyl-[1,1′-biphenyl]-3-methylene)amino)-2-fluorophenoxy) acetic acid]
activation at 0.1 µM (hGPR40 receptor): 67%

COCCOc1cc(C)c(-c2cccc(CNc3ccc(OCC(=O)O)c(F)c3)c2)c(C)c1 [Compound I-10]
activation at 0.1 µM (hGPR40 receptor): 62%

O=C(O)COc1ccc(NCc2cccc(-c3ccccc3)c2)cc1F [Compound I-11, 2-(4-(([1,1′-biphenyl]-3-methylene)amino)-2-fluorophenoxy)acetic acid]
activation at 0.1 µM (hGPR40 receptor): 46%

Cc1cc(OCCCS(C)(=O)=O)cc(C)c1-c1cccc(CNc2ccc(OCC(=O)O)c(F)c2)c1 [Compound I-12]
activation at 0.1 µM (hGPR40 receptor): 68%

CCOc1ccc(-c2cccc(CNc3ccc(OCC(=O)O)c(F)c3)c2)c(C)c1 [Compound I-13]
effect on oral glucose tolerance in mice (in words) (normal mice): significantly improve oral glucose tolerance | blood glucose level at 15 min (normal mice): 7.25 ± 0.58 | blood glucose level at 0 min (normal mice): 4.61 ± 0.35 | blood glucose level at 30 min (normal mice): 7.03 ± 0.89 | blood glucose level at 60 min (normal mice): 5.25 ± 0.72 | blood glucose level at 120 min (normal mice): 4.38 ± 0.37 | AST, ALT and TBIL compared with STZ (blank) group (in words) [1]: equivalent to the blank group | ALT (IU/L) [1]: 52.37 ± 5.3 IU/L | AST (IU/L) [1]: 121.37 ± 13.2 IU/L | TBIL (IU/L) [1]: 2.48 ± 0.5 IU/L | activation at 0.1 µM (hGPR40 receptor): 85% | EC50 (hGPR40 receptor): 14.6 ± 3.7 nM

CCCOc1ccc(-c2cccc(CNc3ccc(OCC(=O)O)c(F)c3)c2)c(C)c1 [Compound I-15]
activation at 0.1 µM (hGPR40 receptor): 75% | EC50 (hGPR40 receptor): 28.4 ± 2.8 nM
